Measured values taken from the supplement of paper PMC11616607.

Each compound was assayed on HOSE2C (assay: drug sensitivity score (DSS) from 5-point dose-response viability curve (DSS (area-under-curve based score)); higher = more sensitive (stronger growth inhibition or killing); extreme values may be limits of the assay). Settings: exposure time: 72 h; concentration range: 5 concentrations over 10,000-fold range.
How it was run: (§1)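 Each cell line and drug received a drug sensitivity score from Breeze software, where higher means more sensitive. Zero stands for no response. Scores came from CellTiter-Glo viability readings of ovarian cancer and normal ovarian cells, 1,500 per well in 384-well plates, after 3 days at 37°C, 5% CO2 with drugs at five concentrations over a 10,000-fold range.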

Structure (SMILES)	drug sensitivity score
CC(C)(C)C[C@@H]1N[C@@H](C(=O)N[C@H]2CC[C@H](O)CC2)[C@H](c2cccc(Cl)c2F)[C@]12C(=O)Nc1cc(Cl)ccc12	16.9
CC(C)Oc1ccc(C(=O)N[C@H](CNC(=O)CN(C)C)Cc2ccc(-c3cn4cccc([C@H](C)O)c4n3)cc2)cc1Cl	11.1
CC[C@@H]1[C@H](F)C(=O)N[C@@H]1COc1nccc2cc(C(N)=O)c(OC)cc12	0
CCc1cncnc1N1CCN(Cc2nc3ccc(C(F)(F)F)cc3[nH]2)CC1	0
CCn1c(-c2nonc2N)nc2cnc(Oc3cccc(NC(=O)c4ccc(OCCN5CCOCC5)cc4)c3)cc21	6
CN(C)CC#Cc1ccc(OCCCc2sc(N3CCc4cccc(C(=O)Nc5nc6ccccc6s5)c4C3)nc2C(=O)O)c(F)c1	6.2
CN(c1ncccc1CNc1nc(Nc2ccc3c(c2)CC(=O)N3)ncc1C(F)(F)F)S(C)(=O)=O	3.9
CNC(=O)c1ccc(C)c(-n2c(C)cc(OCc3ccc(F)cc3F)c(Br)c2=O)c1	0
CNS(=O)(=O)Nc1nccc(Cc2c(C)c3ccc(Oc4ncccn4)cc3oc2=O)c1F	0
CNc1ncc2cc(-c3cc(NC(=O)NCCC(C)(C)C)c(F)cc3C)c(C)nc2n1	5
CO[C@@H](C)Cn1c(=O)n(C)c2cnc3ccc(-c4cncc(C(C)(C)O)c4)cc3c21	9.9
COc1ccc(Cn2ccc3ccc(C(=O)NO)cc32)cc1	1.5
C[C@@H](Oc1ccc2[nH]nc(/C=C/c3cnn(CCO)c3)c2c1)c1c(Cl)cncc1Cl	22.7
C[C@@H]1CN(CC(=O)Nc2ccc3c(c2)Cc2cccc(-c4cc(=O)cc(N5CCOCC5)o4)c2S3)C[C@H](C)O1	0
C[C@H]1C[C@@H](n2c(Nc3ccc(OC(F)(F)F)cc3)nc3cc(CCC(=O)O)ccc32)CC(C)(C)C1	0
Cc1c(-c2c(-c3ccc(F)o3)sc3ncnc(O[C@H](Cc4ccccc4OCc4ccnn4CC(F)(F)F)C(=O)O)c23)ccc(OCCN2CCN(C)CC2)c1Cl	0

Structure (SMILES)	drug sensitivity score
Cc1c(Cn2c(C)nc3c(C(=O)O)cc(N4CCOCC4)cc32)cccc1C(F)(F)F	0
Cc1ccc(C(=O)N(CCCN)[C@@H](c2oc3cc(Cl)ccc3c(=O)c2Cc2ccccc2)C(C)C)cc1	9.2
Cc1cccc(CC(=O)N2CCc3c2ccc(-c2cn(C)c4ncnc(N)c24)c3F)n1	0
Cc1nc(Nc2n[nH]c3c2CN(C(=O)N[C@H](CN(C)C)c2ccccc2)C3(C)C)c2sccc2n1	7.5
Cc1ncc(Cl)cc1NCc1ccc(C(=O)N[C@@H](CC2CCCC2)C(=O)NC2CC2)s1	0
Cn1cc(-c2ccc(F)c(C(F)(F)F)c2)nc1C1CCN(c2ncnc3[nH]ncc23)CC1	3.2
Cn1cc(C2=Nc3cc(NC(=O)C(N)C4CCCCC4)cc4c3C2=CNNC4=O)cn1 (stereo unspecified)	18.3
N#Cc1ccc(COC[C@H]2O[C@@H](n3c(NCc4ccc(Cl)c(Cl)c4)nc4c(N)ncnc43)[C@H](O)[C@@H]2O)cc1	5.6
NCC(=O)Nc1ccc(-n2nc(C(F)(F)F)cc2-c2ccc3c(ccc4ccccc43)c2)cc1	8.9
NC[C@@](O)(c1ccc(Cl)cc1)c1ccc(-c2cn[nH]c2)cc1	6.1
Nc1nccc(-c2c(-c3ccc(F)cc3)ncn2C2CCCCC2)n1	0.9
Nc1ncnc2c1c(COc1cccc(Cl)c1)nn2C1CCOCC1	0
O=C(NOC[C@H](O)CO)c1ccc(F)c(F)c1Nc1ccc(I)cc1F	0.4
O=C(Nc1ccc2[nH]nc(-c3ccncc3)c2c1)[C@@H]1CCN(CC(=O)N2CCN(c3ccc(-c4ncccn4)cc3)CC2)C1	1.1
O=C(O)c1ccc(-c2c[nH]c3ncc(-c4ccccc4)cc23)cc1C1CCCC1	1.2
O=C(O)c1ccc(CN2CCC(CN[C@@H]3C[C@H]3c3ccccc3)CC2)cc1	0

Each compound was assayed on HOSE1C in the same assay as above. Settings: exposure time: 72 h; concentration range: 5 concentrations over 10,000-fold range.
How it was run: as §1

Structure (SMILES)	drug sensitivity score
CC(C)(C)C[C@@H]1N[C@@H](C(=O)N[C@H]2CC[C@H](O)CC2)[C@H](c2cccc(Cl)c2F)[C@]12C(=O)Nc1cc(Cl)ccc12	14.7
CC(C)Oc1ccc(C(=O)N[C@H](CNC(=O)CN(C)C)Cc2ccc(-c3cn4cccc([C@H](C)O)c4n3)cc2)cc1Cl	14.1
CC[C@@H]1[C@H](F)C(=O)N[C@@H]1COc1nccc2cc(C(N)=O)c(OC)cc12	0
CCc1cncnc1N1CCN(Cc2nc3ccc(C(F)(F)F)cc3[nH]2)CC1	0
CCn1c(-c2nonc2N)nc2cnc(Oc3cccc(NC(=O)c4ccc(OCCN5CCOCC5)cc4)c3)cc21	12.7
CN(C)CC#Cc1ccc(OCCCc2sc(N3CCc4cccc(C(=O)Nc5nc6ccccc6s5)c4C3)nc2C(=O)O)c(F)c1	22.7
CN(c1ncccc1CNc1nc(Nc2ccc3c(c2)CC(=O)N3)ncc1C(F)(F)F)S(C)(=O)=O	4.6
CNC(=O)c1ccc(C)c(-n2c(C)cc(OCc3ccc(F)cc3F)c(Br)c2=O)c1	0
CNS(=O)(=O)Nc1nccc(Cc2c(C)c3ccc(Oc4ncccn4)cc3oc2=O)c1F	0
CNc1ncc2cc(-c3cc(NC(=O)NCCC(C)(C)C)c(F)cc3C)c(C)nc2n1	4.2
CO[C@@H](C)Cn1c(=O)n(C)c2cnc3ccc(-c4cncc(C(C)(C)O)c4)cc3c21	15.1
COc1ccc(Cn2ccc3ccc(C(=O)NO)cc32)cc1	2.5
C[C@@H](Oc1ccc2[nH]nc(/C=C/c3cnn(CCO)c3)c2c1)c1c(Cl)cncc1Cl	8.5
C[C@@H]1CN(CC(=O)Nc2ccc3c(c2)Cc2cccc(-c4cc(=O)cc(N5CCOCC5)o4)c2S3)C[C@H](C)O1	0
C[C@H]1C[C@@H](n2c(Nc3ccc(OC(F)(F)F)cc3)nc3cc(CCC(=O)O)ccc32)CC(C)(C)C1	0
Cc1c(-c2c(-c3ccc(F)o3)sc3ncnc(O[C@H](Cc4ccccc4OCc4ccnn4CC(F)(F)F)C(=O)O)c23)ccc(OCCN2CCN(C)CC2)c1Cl	0

Structure (SMILES)	drug sensitivity score
Cc1c(Cn2c(C)nc3c(C(=O)O)cc(N4CCOCC4)cc32)cccc1C(F)(F)F	1.2
Cc1ccc(C(=O)N(CCCN)[C@@H](c2oc3cc(Cl)ccc3c(=O)c2Cc2ccccc2)C(C)C)cc1	15.8
Cc1cccc(CC(=O)N2CCc3c2ccc(-c2cn(C)c4ncnc(N)c24)c3F)n1	0
Cc1nc(Nc2n[nH]c3c2CN(C(=O)N[C@H](CN(C)C)c2ccccc2)C3(C)C)c2sccc2n1	20.6
Cc1ncc(Cl)cc1NCc1ccc(C(=O)N[C@@H](CC2CCCC2)C(=O)NC2CC2)s1	0
Cn1cc(-c2ccc(F)c(C(F)(F)F)c2)nc1C1CCN(c2ncnc3[nH]ncc23)CC1	1.9
Cn1cc(C2=Nc3cc(NC(=O)C(N)C4CCCCC4)cc4c3C2=CNNC4=O)cn1 (stereo unspecified)	13.5
N#Cc1ccc(COC[C@H]2O[C@@H](n3c(NCc4ccc(Cl)c(Cl)c4)nc4c(N)ncnc43)[C@H](O)[C@@H]2O)cc1	2.7
NCC(=O)Nc1ccc(-n2nc(C(F)(F)F)cc2-c2ccc3c(ccc4ccccc43)c2)cc1	21.7
NC[C@@](O)(c1ccc(Cl)cc1)c1ccc(-c2cn[nH]c2)cc1	8.6
Nc1nccc(-c2c(-c3ccc(F)cc3)ncn2C2CCCCC2)n1	1.6
Nc1ncnc2c1c(COc1cccc(Cl)c1)nn2C1CCOCC1	0
O=C(NOC[C@H](O)CO)c1ccc(F)c(F)c1Nc1ccc(I)cc1F	0
O=C(Nc1ccc2[nH]nc(-c3ccncc3)c2c1)[C@@H]1CCN(CC(=O)N2CCN(c3ccc(-c4ncccn4)cc3)CC2)C1	0.2
O=C(O)c1ccc(-c2c[nH]c3ncc(-c4ccccc4)cc23)cc1C1CCCC1	0
O=C(O)c1ccc(CN2CCC(CN[C@@H]3C[C@H]3c3ccccc3)CC2)cc1	0

What follows are compounds tested on OV90 in the same assay as above. Settings: exposure time: 72 h; concentration range: 5 concentrations over 10,000-fold range.
How it was run: as §1

Structure (SMILES)	drug sensitivity score
CC(C)(C)C[C@@H]1N[C@@H](C(=O)N[C@H]2CC[C@H](O)CC2)[C@H](c2cccc(Cl)c2F)[C@]12C(=O)Nc1cc(Cl)ccc12	2.1
CC(C)Oc1ccc(C(=O)N[C@H](CNC(=O)CN(C)C)Cc2ccc(-c3cn4cccc([C@H](C)O)c4n3)cc2)cc1Cl	12
CC[C@@H]1[C@H](F)C(=O)N[C@@H]1COc1nccc2cc(C(N)=O)c(OC)cc12	0.6
CCc1cncnc1N1CCN(Cc2nc3ccc(C(F)(F)F)cc3[nH]2)CC1	2.9
CCn1c(-c2nonc2N)nc2cnc(Oc3cccc(NC(=O)c4ccc(OCCN5CCOCC5)cc4)c3)cc21	5.1
CN(C)CC#Cc1ccc(OCCCc2sc(N3CCc4cccc(C(=O)Nc5nc6ccccc6s5)c4C3)nc2C(=O)O)c(F)c1	19.2
CN(c1ncccc1CNc1nc(Nc2ccc3c(c2)CC(=O)N3)ncc1C(F)(F)F)S(C)(=O)=O	5.9
CNC(=O)c1ccc(C)c(-n2c(C)cc(OCc3ccc(F)cc3F)c(Br)c2=O)c1	0
CNS(=O)(=O)Nc1nccc(Cc2c(C)c3ccc(Oc4ncccn4)cc3oc2=O)c1F	6.3
CNc1ncc2cc(-c3cc(NC(=O)NCCC(C)(C)C)c(F)cc3C)c(C)nc2n1	24.4
CO[C@@H](C)Cn1c(=O)n(C)c2cnc3ccc(-c4cncc(C(C)(C)O)c4)cc3c21	11.9
COc1ccc(Cn2ccc3ccc(C(=O)NO)cc32)cc1	1.8
C[C@@H](Oc1ccc2[nH]nc(/C=C/c3cnn(CCO)c3)c2c1)c1c(Cl)cncc1Cl	5.3
C[C@@H]1CN(CC(=O)Nc2ccc3c(c2)Cc2cccc(-c4cc(=O)cc(N5CCOCC5)o4)c2S3)C[C@H](C)O1	2.7
C[C@H]1C[C@@H](n2c(Nc3ccc(OC(F)(F)F)cc3)nc3cc(CCC(=O)O)ccc32)CC(C)(C)C1	0
Cc1c(-c2c(-c3ccc(F)o3)sc3ncnc(O[C@H](Cc4ccccc4OCc4ccnn4CC(F)(F)F)C(=O)O)c23)ccc(OCCN2CCN(C)CC2)c1Cl	0.1

Structure (SMILES)	drug sensitivity score
Cc1c(Cn2c(C)nc3c(C(=O)O)cc(N4CCOCC4)cc32)cccc1C(F)(F)F	0
Cc1ccc(C(=O)N(CCCN)[C@@H](c2oc3cc(Cl)ccc3c(=O)c2Cc2ccccc2)C(C)C)cc1	6.4
Cc1cccc(CC(=O)N2CCc3c2ccc(-c2cn(C)c4ncnc(N)c24)c3F)n1	0
Cc1nc(Nc2n[nH]c3c2CN(C(=O)N[C@H](CN(C)C)c2ccccc2)C3(C)C)c2sccc2n1	17
Cc1ncc(Cl)cc1NCc1ccc(C(=O)N[C@@H](CC2CCCC2)C(=O)NC2CC2)s1	0.1
Cn1cc(-c2ccc(F)c(C(F)(F)F)c2)nc1C1CCN(c2ncnc3[nH]ncc23)CC1	0
Cn1cc(C2=Nc3cc(NC(=O)C(N)C4CCCCC4)cc4c3C2=CNNC4=O)cn1 (stereo unspecified)	11.6
N#Cc1ccc(COC[C@H]2O[C@@H](n3c(NCc4ccc(Cl)c(Cl)c4)nc4c(N)ncnc43)[C@H](O)[C@@H]2O)cc1	3.8
NCC(=O)Nc1ccc(-n2nc(C(F)(F)F)cc2-c2ccc3c(ccc4ccccc43)c2)cc1	0.1
NC[C@@](O)(c1ccc(Cl)cc1)c1ccc(-c2cn[nH]c2)cc1	0
Nc1nccc(-c2c(-c3ccc(F)cc3)ncn2C2CCCCC2)n1	0
Nc1ncnc2c1c(COc1cccc(Cl)c1)nn2C1CCOCC1	0
O=C(NOC[C@H](O)CO)c1ccc(F)c(F)c1Nc1ccc(I)cc1F	21.6
O=C(Nc1ccc2[nH]nc(-c3ccncc3)c2c1)[C@@H]1CCN(CC(=O)N2CCN(c3ccc(-c4ncccn4)cc3)CC2)C1	23.5
O=C(O)c1ccc(-c2c[nH]c3ncc(-c4ccccc4)cc23)cc1C1CCCC1	1.2
O=C(O)c1ccc(CN2CCC(CN[C@@H]3C[C@H]3c3ccccc3)CC2)cc1	0
